Experimental findings from patent US9974785B2, “Aromatic heterocyclic derivatives and pharmaceutical applications thereof” (SUNSHINE LAKE PHARMA CO., LTD., priority 2014, dated 2018) are described below.

Each structure is given as a SMILES string.

Data set [1] can be described thus: Pharmacokinetic evaluation after intravenous or gavage administration to dogs. In kind it is in vivo, Beagle dogs. The conditions noted are these: for AUC(0-inf) / AUC(0-t) / Cmax / MRT inf / Tmax / clearance / half-life / Vd: beagle, dog, plasma; for Vd: read-out: Vss. The method, then:
Example B: Pharmacokinetic Evaluation after Administering a Certain Amount of the Compounds of the Invention Intravenously or by Gavage to Dogs and Monkeys
In vivo pharmacokinetic assays in dogs and cynomolgus monkeys of the compounds disclosed herein were performed by the following steps.
Experiments were divided into two groups, one group was administered through intravenous drug delivery, and the other group was administered by gavage. The compounds disclosed herein were administered in form of a saline solution containing 5% DMSO, 5% Kolliphor HS 15, 2% (2% HCl) and 88% Saline, or the solution containing 10% DMSO, 10% Kolliphor HS 15 and 80% physiological saline. For intravenous administration, the animals were administered with a dose of 1 mg/kg, and 0.3 mL of vein blood was collected at the time points of 0.083, 0.25, 0.5, 1.0, 2.0, 4.0, 6.0, 8.0 and 24 h after drug administration (the time point of drug administration was set as 0 h), then each blood sample was processed to separate plasma by centrifugation at 3000 rpm or 4000 rpm for 10 minutes, and plasma was collected and stored at −20° C. or −70° C. until LC/MS/MS analysis described above. For gavage administration, the animals were administered with a dose of 2.5 mg/kg or 5 mg/kg, and 0.3 mL of vein blood was collected at the time points of 0.25, 0.5, 1.0, 2.0, 4.0, 6.0, 8.0 and 24 h after drug administration (the time point of drug administration was set as 0 h), then each blood sample was processed to separate plasma by centrifugation at 3000 rpm or 4000 rpm for 10 minutes, and plasma was collected and stored at −20° C. or −70° C. until LC/MS/MS analysis described above.
The above plasma was analyzed by the LC/MS/MS system.

Data set [2] is described as follows: Stability in rat liver microsomes. Format: in vitro ADME. The settings on record: rat liver microsome 0.5 mg/mL, 1 μM compound, 37° C.; for half-life at 1 μM: pH 7.4; for CLint scaled at 1 μM: pH 7.4, read-out: Intrinsic clearance. The protocol: (§1) Example C: Evaluation of the Stability of the Compounds of the Invention in Rat and Human Liver Microsomes
(§2) The compound of the invention and rat liver microsome or human liver microsome were placed in 0.1 M potassium phosphate buffer (containing 1.0 mM EDTA, pH=7.4) at 37° C., and the mixture was incubated at 37° C. The concentrations of the compound at different incubation time points were determined, and the half-life of the compound was calculated by curve plotted based on the relative contents of the compound and the corresponding incubation times by using GraphPad Prism 5.01. Then the intrinsic clearance was calculated.
(§3) The peak area ratio of sample to internal standard was analyzed by the LC/MS/MS system. The content of the compound at 0 min was 100%, and the relative contents of the compound at different time points were calculated. The half-life of the compound was calculated by curve plotted based on the relative contents of the compound and the corresponding incubation times, and the intrinsic clearance was calculated.

The target of data set [3] is human 5-HT6 receptor (Homo sapiens (Human), UniProt P50406). Kind of data set: Radioligand binding assay, human 5-HT6 receptor expressed in CHO cell. The settings on record: 2 nM [3H]LSD. The protocol: Example A: The Binding Affinities of the Compounds of this Invention to Human 5-HT6 Receptor Expressed in CHO Cell were Evaluated by Radioligand Binding Assay as Follows
Chain of human 5-HT6 receptor (P50406 whole entry): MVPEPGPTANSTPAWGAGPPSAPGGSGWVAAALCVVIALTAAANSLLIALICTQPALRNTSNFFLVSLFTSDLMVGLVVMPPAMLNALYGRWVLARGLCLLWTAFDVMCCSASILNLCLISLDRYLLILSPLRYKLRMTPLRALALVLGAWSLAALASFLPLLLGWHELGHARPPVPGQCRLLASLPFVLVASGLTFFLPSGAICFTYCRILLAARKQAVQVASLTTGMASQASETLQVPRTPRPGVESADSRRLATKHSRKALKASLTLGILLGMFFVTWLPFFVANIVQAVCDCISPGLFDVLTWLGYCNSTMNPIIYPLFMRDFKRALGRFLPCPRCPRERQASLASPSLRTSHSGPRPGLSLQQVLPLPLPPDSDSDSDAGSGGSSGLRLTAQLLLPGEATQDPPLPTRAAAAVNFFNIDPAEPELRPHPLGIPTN
32 μg membrane proteins of CHO cell expressing human 5-HT6 receptor, 2 nM of radioactive marker [3H]LSD, a compound of the present invention having different test concentrations, 100 μM 5-HT (5-HT was used to eliminate nonspecific binding sites) and a buffer solution were mixed uniformly. Then the resulting mixture was incubated at 37° C. for 120 min, in which the buffer solution comprised 50 mM Tris-HCl (pH 7.4), 10 mM MgCl2, 0.5 mM EDTA, 10 μM pargyline and 20 mg/L protease inhibitor.
After incubation, the resulting mixture was filtered by a fiberglass filter (GF/B, Packard) in vacuo, and the filter membrane of the fiberglass filter was preimpregnated with 0.3% PEI before the filtering and washed with 50 mM of Tris-HCl for several times after the filtering. After the filter membrane was dried, and the radioactivity of filter membrane was determined by liquid scintillation counting by using a scintillometer (Topcount, Packard). The reference standard was 5-HT, and competitive inhibition curves were plotted based on several inhibition ratios and the corresponding compound concentrations. IC50 values were calculated by non-linear regression analysis using Hill equation curves, and the Ki values were calculated from IC50 by using the ChengPrusoff equation.

Data set [4] is described as follows: Stability in human liver microsomes. Format: in vitro ADME. The conditions noted are these: for half-life at 1 μM / CLint scaled at 1 μM: liver microsomes, human liver microsome 0.5 mg/mL, 1 μM compound, 37° C., pH 7.4; for CLint scaled at 1 μM: read-out: Intrinsic clearance; for degradation in human liver microsomes in vitro: in 60 minutes. The method, then: as §1, §2, §3
In general terms: Liver microsomes are a subcellular fraction often used to study metabolism.

Setting [5] is: intravenous drug delivery group, dose 1 mg/kg.
Setting [6] is: po, gavage group, dose 2.5 mg/kg.

The AUC(0-inf) is the area under the concentration-time curve extrapolated to infinity. A high value points to high exposure. What is called AUC(0-t) is the area under the concentration-time curve up to a stated or last time point. Low readings indicate less exposure, high ones more exposure. The Cmax is the highest concentration seen after dosing. The term MRT inf denotes the average time that molecules of a dose stay in the body. What is called Tmax is the time at which the peak concentration occurs. Broadly, the half-life is the time needed for the level to fall by half in the phase considered. What is called Ki is a measure of affinity in units of concentration, obtained from inhibition or displacement.

In data set [1] (setting [5]), `O=S(=O)(c1ccccc1F)n1cc(C(F)F)c2c(N3CCNCC3)cccc21` [Example 2, 3-(difluoromethyl)-1-((2-fluorophenyl)sulfonyl)-4-(piperazin-1-yl)-1H-indole] had an AUC(0-inf) of 926 ng·h/mL, an AUC(0-t) of 781 ng·h/mL, a Cmax of 106 ng/mL and an MRT inf of 8.73 h. In data set [1] (setting [5]), the Tmax came to 0.194 h, the clearance was found to be 18.5 mL/min/kg, the half-life was 6.43 h and the Vd was 9.86 L/kg. In addition, in data set [1] (setting [6]), the AUC(0-inf) was 3160 ng·h/mL, the AUC(0-t) was 2400 ng·h/mL, the Cmax amounted to 173 ng/mL and the MRT inf worked out at 16.8 h. Moreover, in data set [1] (setting [6]), the Tmax was determined as 3.33 h and the half-life is 11.4 h. The F in data set [1] (gavage group, dose 2.5 mg/kg) worked out at 103.67%. Besides, in data set [2], the half-life at 1 μM was 0.583 h and the CLint scaled at 1 μM is 71 mL/min/kg. In data set [3], this compound registered a Ki of 0.46 nM. Besides, in data set [4], the half-life at 1 μM turned out to be 2.22 h and the CLint scaled at 1 μM stood at 13.1 mL/min/kg.

In data set [1] (setting [5]), `O=S(=O)(c1ccccc1Cl)n1cc(C(F)F)c2c(N3CCNCC3)cccc21` [Example 3, 1-((2-chlorophenyl)sulfonyl)-3-(difluoromethyl)-4-(piperazin-1-yl)-1H-indole] registered an AUC(0-inf) of 2340 ng·h/mL, an area under the curve AUC(0-t) of 2660 ng·h/mL, a Cmax of 293 ng/mL and a mean residence time MRT inf of 8.77 h. Further, in data set [1] (setting [5]), the Tmax is 8.06 h, the clearance is 7.13 mL/min/kg, the half-life was 6.26 h and the Vd was found to be 3.77 L/kg. In data set [1] (setting [6]), this compound displayed an AUC(0-inf) of 17600 ng·h/mL, an AUC(0-t) of 9250 ng·h/mL, a Cmax of 975 ng/mL and an MRT inf of 17.9 h. In data set [1] (setting [6]), the Tmax was 4.67 h and the half-life is 14.7 h. Also, the F in data set [1] (gavage group, dose 2.5 mg/kg) stood at 139%. Also, in data set [2], the half-life at 1 μM came out at 0.501 h and the CLint scaled at 1 μM turned out to be 82.6 mL/min/kg. In addition, the affinity in data set [3] corresponds to a Ki of 0.43 nM. Moreover, in data set [4], the half-life at 1 μM is 2.2 h and the CLint scaled at 1 μM came to 13.2 mL/min/kg.

Regarding `O=S(=O)(c1cccc(F)c1)n1cc(C(F)F)c2c(N3CCNCC3)cccc21` [Example 5, 3-(difluoromethyl)-1-((3-fluorophenyl)sulfonyl)-4-(piperazin-1-yl)-1H-indole], in data set [1] (setting [5]), the AUC(0-inf) amounted to 1190 ng·h/mL, the AUC(0-t) is 1100 ng·h/mL, the peak level (Cmax) was 125 ng/mL and the MRT inf was found to be 8.77 h. Besides, in data set [1] (setting [5]), the Tmax turned out to be 0.389 h, the clearance came to 14 mL/min/kg, the half-life is 6.49 h and the Vd turned out to be 7.36 L/kg. In data set [1] (po, gavage group, dose 5 mg/kg), this compound came in with an AUC(0-inf) of 8350 ng·h/mL, an AUC(0-t) of 5680 ng·h/mL, a Cmax of 347 ng/mL and an MRT inf of 15 h. In addition, in data set [1] (po, gavage group, dose 5 mg/kg), the Tmax stood at 6 h and the half-life was 10.1 h. Further, the F in data set [1] (gavage group, dose 5 mg/kg) is 103.21%. In data set [2], the half-life at 1 μM turned out to be 0.725 h and the CLint scaled at 1 μM was found to be 57.1 mL/min/kg. This compound registered a Ki in data set [3] of 0.52 nM. Moreover, in data set [4], the “degradation in human liver microsomes in vitro” value is listed as “almost had no degradation”, the half-life at 1 μM came out at 3.62 h and the CLint scaled at 1 μM was 7.99 mL/min/kg.

For `O=S(=O)(c1cccc(Cl)c1)n1cc(C(F)F)c2c(N3CCNCC3)cccc21` [Example 6, 1-((3-chlorophenyl)sulfonyl)-3-(difluoromethyl)-4-(piperazin-1-yl)-1H-indole], in data set [2], the half-life at 1 μM was determined as 0.591 h and the CLint scaled at 1 μM was 70 mL/min/kg. Besides, the Ki in data set [3] is 0.68 nM. The “degradation in human liver microsomes in vitro” value in data set [4] is “almost had no degradation”.
